Laboratory results as given in patent publication US20060217340A1, “Methods and products for treating hypertension by modulation of TRPC3 channel activity” (University of Vermont and State Agricultural College, priority 2005, published 2006).

Columns and labels:
Assay type in all cases: cell-based, rat
TRPC6 = experiment: Western analysis of TRPC6 protein expression in arteries; conditions: cerebral arterial SMCs
Experimental: (§1) Western Analysis. Arterial segments were homogenized in lysis buffer (5 minutes, 4° C.) containing (in mM): 40 CAPS, 1 DL-Dithiothreitol (DTT), 10 EDTA, 15 MgCl2, 115 NaCl, 1 NaOrthovanadate, 1 NaF, 2.5 Urea, and 0.25% deoxychlorate, 10% glycerol, 1% NP-40, 0.2% SDS, and 1:50 mammalian protease inhibitor cocktail (Sigma, St. Louis, Mo., USA). Equal amounts of sample protein were separated on a 10% polyacrylamide gel and transferred to a nitrocellulose membrane. The membranes were exposed to a TRPC3 or TRPC6 polyclonal antibody (anti-rabbit 1:200 dilution, Alomone Labs, Jerusalem, Israel) and a […] (GAPDH) monoclonal antibody (anti-mouse, 1:1000 dilution, Chemicon Labs, Temecula, Calif., USA). Alexa-Fluor 680® goat anti-rabbit (Molecular Probes, Eugene, Oreg., USA) and IRDyeTM800 anti-mouse (Rockland Immunochemicals, Gilbertsville, Pa., USA) were used to fluorescently label the TRPC3 and GAPDH antibodies respectively. The density of signals specific for the TRPC3 and GAPDH bands in a given lane on a membrane were measured after scanning the membrane with an Odyssey® infared imaging system (Li-COR Biosciences, Lincoln, Nebr., USA). Quantified amounts were normalized to a total protein amount lane on the polyacrylamide gel.
(§2) Oligodeoxynucleotide Sequences and Reverse Permeabilization. […]

TRPC3 = experiment: Western analysis of TRPC3 protein expression in arteries
Experimental: as §1
Oligodeoxynucleotide Sequences and Reverse Permeabilization. TRPC6 sense and antisense oligodeoxynucleotides (ODN's) were designed as previously described (Welsh et al 2002 Circ Res 90, 248-250) and were as follows: sense, 5′-[…]-3′ (SEQ ID: 3) and 5′-GCACACGCAGCCTCTTCAC-3′ (SEQ ID: 4) antisense, 5′-[…]-3′ (SEQ ID: 5) and 5′-[…]-3′ (SEQ ID: 6). TRPC3 sense and antisense ODN's were designed based on the rat TRPC3 gene (Ohki et al 2000 J Biol Chem 275: 39055-39060) and are as follows: sense, 5′-[…]-3′ (SEQ ID: 7) and 5′-[…]-3′ (SEQ ID: 8); anti-sense, 5′-[…]-3′ (SEQ ID: 9) and 5′-[…]-3′ (SEQ ID: 10). The last five bases on the 5′ and 3′ end were phosphorothioated in order to limit ODN degradation. […]

[1] = test system: glyceraldehyde dehydrogenase (GAPDH); experiment: Western analysis of GAPDH protein expression in cerebral artery; conditions: 3 days organ culture
Experimental: as §1, §2

“5′-GAGAACCATGAACTGGAATA-3′ (SEQ ID: 9) and 5′-ACGACCAACACGACCAGACA-3′ (SEQ ID: 10) (phosphorothioate ends, further chemistry not given here) [TRPC3 antisense, antisense ODNs based on the rat TRPC3 gene; last five bases on the 5′ and 3′ end phosphorothioated]” was tested, and the “effect on the expression of TRPC6” value (TRPC6) was “no effect”, the “TRPC3 expression reduced (Western blots of arterial lysates)” value (TRPC3; TRPC3 antisense compared with sense treated arteries) was ~60% and the “TRPC3 to GAPDH ratio less in antisense compared to sense treated samples” value (TRPC3; after 3 days of organ culture, n=4 each) was 42.5±11.4%. The “effect on the expression of GAPDH” value [1] was “no effect”.
